The subject of assay [1] is HepG2 cells. Briefly: Fatty acid (palmitate) oxidation assay with human liver hepatoma cells HepG2. Conditions: for Stimulation of palmitate / fatty acid oxidation (in words): HepG2. Type of assay: cell-based. As for the experimental part: For routine passaging, HepG2 cells (American Type Culture Collection, ATCC) were grown in T75 flasks (Falcon, #353136) in 15 ml of Dulbecco's modified Eagle medium (DMEM, Sigma, #D5796), containing 10% heat inactivated fetal bovine serum (FBS, Summit Biotechnology, #S-100-05) and 1% Penicillin/Streptomycin (Sigma, #P4333). […] The cells were passaged once per week by trypsinization and an additional change of medium was done after 3 to 4 days after passaging.

Assay [2] has as its system differentiated L6 cells.
Protocol: (§1) Labeling medium to assay oxidation of fatty acids was composed of glucose-deficient DMEM containing 3.7 g/l NaHCO3, 25 mM HEPES-NaOH, 0.5% fatty acid-free bovine serum albumin (BSA), 0.1% ethanol, 0.5% DMSO (or test compounds dissolved in DMSO), 5 mM D-glucose, and 16 μM unlabeled palmitate plus 0.25 μM [U-^14C]palmitate (approx. 800 mCi/mmol). After the addition of labeling medium, the cell culture plates were sealed air tight with self adhesive Super Sealing Film (Life Systems Design, #02-2796-3001). Before sealing, twelve 1 cm^2 squares of filter paper (Schleicher & Schuell, #GB004) pretreated with 50 μl of highly basic tissue solubilizer solution NCSII (Amersham Pharmacia, #NNCS-502) were attached to the lower side of the sealing film. Upon sealing of the tissue culture plates, the filters were positioned in the center above each well, and served to capture the evolving ^14CO2 that was produced by the cells in each individual well. After an incubation between 3 to 8 hours at 37° C., the filters were removed from the sealing film and the captured ^14CO2 was quantitated by liquid scintillation counting with 2 ml of scintillation cocktail BCS-NA (Amersham Pharmacia, #NBCS204) in a Tri-Carb liquid scintillation counter (Canberra Packard).
(§2) Cultivation of the differentiating rat muscle cell line L6 for fatty acid oxidation assays was performed as follows. For routine passaging, L6 cells (ATCC) were grown in T75 flasks in 15 ml of MEM Alpha medium (Gibco BRL Life Technologies, #22571-038), containing 10% heat inactivated FBS and 1% antibiotic/antimycotic solution (Gibco BRL Life Technologies, #15240-062). Incubation was done at 37° C. in a humid atmosphere containing 5% CO2. The cells were passaged twice per week by trypsinization.
(§3) For fatty acid oxidation assays, each well of a 12-well tissue culture plate was seeded with 2 to 5×10^4 cells in 1 ml of MEM Alpha, 10% FBS, 1% antibiotic/antimycotic solution. After 3 days, medium was exchanged by 1 ml of the same, fresh medium. After 5 days, medium was exchanged again, this time by 1 ml of medium containing 2% FBS, 1% antibiotic/antimycotic solution. After 7 days, the cells were fully differentiated and formed large multinucleated myotubes. At this stage, the medium was replaced by 1 ml of glucose-deficient DMEM supplemented with 3.7 g/l NaHCO3 and 25 mM HEPES-NaOH followed by a starvation period of 2 to 6 hours at 37° C. […] The compounds were tested at three different concentrations (2, 0.2 and 0.02 μM) on differentiated L6 cells.
In assay [3] the target is T1, human ACCβ enzyme (Homo sapiens, UniProt O00763).
T1 construct: The cloning of the full length human muscle-type ACCβ cDNA and expression in HEK293 cells; made in house; host or cells: HEK293 cells (ATCC CRL-1573), plasmid pRF33D
T1 sequence (O00763 whole entry): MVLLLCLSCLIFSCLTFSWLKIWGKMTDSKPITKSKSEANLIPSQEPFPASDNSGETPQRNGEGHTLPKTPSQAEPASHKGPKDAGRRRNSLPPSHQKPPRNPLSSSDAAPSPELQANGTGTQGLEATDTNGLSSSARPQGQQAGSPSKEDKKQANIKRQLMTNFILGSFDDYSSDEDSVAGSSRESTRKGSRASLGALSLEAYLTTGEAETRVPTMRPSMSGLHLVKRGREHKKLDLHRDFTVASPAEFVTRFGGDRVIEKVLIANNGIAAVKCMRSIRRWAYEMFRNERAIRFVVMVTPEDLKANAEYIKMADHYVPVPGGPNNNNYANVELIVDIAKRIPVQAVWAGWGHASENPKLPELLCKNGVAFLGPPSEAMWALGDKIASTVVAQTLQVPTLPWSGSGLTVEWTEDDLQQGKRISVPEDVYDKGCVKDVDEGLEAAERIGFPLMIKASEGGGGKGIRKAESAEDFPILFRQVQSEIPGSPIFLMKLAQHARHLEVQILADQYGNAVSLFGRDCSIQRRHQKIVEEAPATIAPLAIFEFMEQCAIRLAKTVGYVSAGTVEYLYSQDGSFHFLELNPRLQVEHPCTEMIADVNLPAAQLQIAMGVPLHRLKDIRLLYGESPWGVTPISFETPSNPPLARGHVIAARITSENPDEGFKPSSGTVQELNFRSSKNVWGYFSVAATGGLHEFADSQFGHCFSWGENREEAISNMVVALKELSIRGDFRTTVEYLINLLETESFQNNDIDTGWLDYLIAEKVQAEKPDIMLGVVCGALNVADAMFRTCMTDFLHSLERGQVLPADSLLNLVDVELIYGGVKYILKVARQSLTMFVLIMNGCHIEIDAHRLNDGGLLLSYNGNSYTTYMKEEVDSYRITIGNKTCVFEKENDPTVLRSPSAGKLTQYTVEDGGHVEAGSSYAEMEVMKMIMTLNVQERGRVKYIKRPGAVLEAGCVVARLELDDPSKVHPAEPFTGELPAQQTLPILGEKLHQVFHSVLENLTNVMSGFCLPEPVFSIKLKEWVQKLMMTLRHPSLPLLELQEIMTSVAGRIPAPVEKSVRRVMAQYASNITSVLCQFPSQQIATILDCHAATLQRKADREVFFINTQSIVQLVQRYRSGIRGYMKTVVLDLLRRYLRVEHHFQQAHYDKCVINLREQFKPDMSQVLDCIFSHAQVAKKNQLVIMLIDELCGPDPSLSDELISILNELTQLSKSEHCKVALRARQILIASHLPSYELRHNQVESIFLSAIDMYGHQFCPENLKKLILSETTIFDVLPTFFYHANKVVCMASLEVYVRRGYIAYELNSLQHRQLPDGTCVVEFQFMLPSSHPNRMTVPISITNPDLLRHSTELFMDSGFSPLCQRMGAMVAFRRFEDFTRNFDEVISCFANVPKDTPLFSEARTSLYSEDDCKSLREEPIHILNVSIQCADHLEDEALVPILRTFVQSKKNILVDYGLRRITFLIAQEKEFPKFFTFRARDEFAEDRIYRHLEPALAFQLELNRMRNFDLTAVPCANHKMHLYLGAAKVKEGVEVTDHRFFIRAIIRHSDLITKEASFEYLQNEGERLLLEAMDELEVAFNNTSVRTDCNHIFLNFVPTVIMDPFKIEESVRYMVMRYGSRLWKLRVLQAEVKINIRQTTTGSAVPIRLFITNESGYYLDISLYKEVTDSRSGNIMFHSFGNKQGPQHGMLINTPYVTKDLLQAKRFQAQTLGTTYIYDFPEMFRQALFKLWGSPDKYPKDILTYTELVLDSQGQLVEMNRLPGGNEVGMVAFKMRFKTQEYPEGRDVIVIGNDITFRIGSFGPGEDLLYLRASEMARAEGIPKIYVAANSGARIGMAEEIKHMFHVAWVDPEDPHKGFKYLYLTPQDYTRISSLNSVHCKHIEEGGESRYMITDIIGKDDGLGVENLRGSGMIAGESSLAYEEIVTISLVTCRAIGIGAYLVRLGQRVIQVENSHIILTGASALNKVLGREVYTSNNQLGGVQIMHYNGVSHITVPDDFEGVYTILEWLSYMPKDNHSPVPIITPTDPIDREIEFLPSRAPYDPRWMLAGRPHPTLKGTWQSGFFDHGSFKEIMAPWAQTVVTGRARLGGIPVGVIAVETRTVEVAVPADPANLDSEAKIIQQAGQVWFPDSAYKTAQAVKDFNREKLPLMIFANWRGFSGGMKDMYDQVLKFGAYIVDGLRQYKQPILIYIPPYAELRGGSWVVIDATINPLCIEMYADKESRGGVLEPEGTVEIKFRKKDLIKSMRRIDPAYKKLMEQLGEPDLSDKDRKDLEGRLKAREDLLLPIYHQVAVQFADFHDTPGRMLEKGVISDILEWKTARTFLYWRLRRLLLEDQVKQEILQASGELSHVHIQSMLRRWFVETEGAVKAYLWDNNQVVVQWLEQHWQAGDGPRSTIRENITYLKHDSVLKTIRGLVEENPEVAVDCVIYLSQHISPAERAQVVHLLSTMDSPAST
Kind of assay: Human ACCβ enzyme activity / inhibition assay (radiometric). Type of assay: biochemical. Conditions: for IC50: purified recombinant human ACCβ, saturating substrate concentrations, read-out: IC50 against purified ACCβ enzyme; for Effect on K0.5 of K-citrate / Effect on Vmax of the ACC enzyme reaction: titration of compound at 0.5, 1 and 2 times IC50. As for the experimental part:
The cloning of the full length human muscle-type ACCβ cDNA and expression in HEK293 cells (ATCC, #CRL-1573) was performed as follows. The ACCβ cDNA was amplified by the polymerase chain reaction (PCR) and was cloned using standard recombinant DNA techniques. The PCR reaction was performed with the Expand Long Template PCR System (Roche Molecular Biochemicals, #1 681 8340) and 0.5 ng of cDNA from human skeletal muscle as template. The primers used for PCR amplification were designed on the basis of the published sequence of the human ACCβ cDNA isolated from a human liver cDNA library (Abul-Elheiga et al. J. Biol Chem. 272, 10669-10677, 1997). The sequence of the forward primer ACCB1 was 5′-[…]-3′; it includes a NheI restriction cleavage site for subcloning and a Kozak translation initiation consensus sequence preceding the ATG start codon. The sequence of the reverse primer ACCB8 was 5′-[…]-3′; it includes a stop codon and a XhoI restriction cleavage site for subcloning. The amplified DNA fragment of approximately 7.4 kb was cloned into a mammalian expression vector. The resulting plasmid isolates, pRF33A, B, C, D, and E were individually transfected in human embryonic kidney 293 cells (HEK293) using a standard lipid transfection method. Cell extracts of transfected cells were prepared in a lysis buffer containing 0.4 mg/ml digitonin and enzyme activity was determined using a radiometric ACC activity assay as described below. Plasmid pRF33D gave the highest activity and was chosen for large scale transfections of HEK293 cells and enzyme purification.
Since ACC enzyme activities in crude cell lysates were very low, enrichment of ACCβ enzyme expressed in HEK293 cells was achieved by a single anion exchange chromatography step. Cell lysates were run over a 5 ml Econo Pac High Q column (Bio-Rad, #732-0027). Bound proteins were eluted by a gradient of NaCl from 0 to 1 M in 50 mM Tris-HCl, pH 7.5, 1 mM DTT, 5% glycerol. Fractions containing high ACCβ enzyme activity were pooled and stored at −20° C.
Standard ACCβ enzyme assays, in a total volume of 100 μl, contained 50 mM HEPES-KOH, pH 7.5, 10 mM K-citrate, 10 mM MgSO4, 1 mM ATP, 0.1 mM DTT, 2% DMSO, 0.1 mg/ml fatty acid-free BSA, 0.2 mM acetyl-CoA, 2 mM KHCO3, 0.2 mM [^14C]NaHCO3 (50-60 mCi/mmol) and cell lysate or purified ACCβ enzyme. Reactions were incubated at 37° C. for 45 min. and stopped by the addition of 50 μl of 2 N HCl. Terminated reactions were incubated at 50° C. over night to evaporate non-incorporated [^14C]NaHCO3. [^14C]-labeled malonyl-CoA reaction product was quantitated by liquid scintillation counting after the addition of 20 μl of Microscint 20 (Canberra Packard, #6013621) on a TopCount NXT microplate scintillation counter (Canberra Packard).
Inhibition of ACCβ activity was determined at saturating substrate concentrations with two-fold serial dilutions of test compounds spanning a concentration range of at least two log units. IC50 values were calculated with the GraFit software (Erithacus Software Ltd.). Kinetic parameters (Km, Vmax and K0.5) were determined by varying one substrate (or allosteric effector) in a two-fold serial dilution over a concentration range of at least two log units while keeping all other substrates at constant saturating concentrations. Fitting to the Michaelis-Menten equation (for calculation of Km of substrates) and fitting to the Hill equation (for calculation of K0.5of the allosteric activator K-citrate) was done with the GraFit software. To determine the mode of action of Soraphens, determinations of Km for ATP and acetyl-CoA and of K0.5 for K-citrate were repeated in the absence and in the presence of the three different Soraphens at 0.5, 1 and 2 times their IC50 and the data were fitted to the equation for non-competitive inhibition with the GraFit software.

In assay [4] the test system is differentiated L6 cells. Kind of assay: Fatty acid (palmitate) oxidation assay with differentiated rat L6 muscle cells.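 Note: differentiated rat L6 myotubes fed [14C]-palmitate, with oxidation read as 14CO2 trapped on filters and counted by liquid scintillation after 3 to 8 h at 37 °C.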
Protocol: as §1, §2, §3

The structures appear in SMILES notation. Where two headings read alike, the source gives them in different places.

As a reminder, the IC50 is the concentration at which inhibition is half-maximal.

Consider `CC(Oc1ccc(Oc2ncc(C(F)(F)F)cc2Cl)cc1)C(=O)O` (stereo not shown) [Haloxyfop, 2-[4-(3-chloro-5-trifluormethyl-2-pyridinyloxy)phenoxy] propionic acid], for which the “Stimulation of palmitate / fatty acid oxidation (in words)” value in assay [1] is on record as “did not stimulate”. For the same molecule, in assay [1] (HepG2, 25 μM), the “Fold stimulation over palmitate oxidation rate in the absence of test compounds” value (“Fold stimulation … of test compounds” for short) was determined as 1.0 fold and the Palmitate oxidation rate is given as 3.6 +/− 0.4 pmol · h^−1 · well^−1.

`CO[C@@H]1[C@@H](O)[C@H](C)[C@H]2OC1(O)[C@H](C)C(=O)O[C@H](c1ccccc1)CCCC[C@H](O)[C@H](O)/C=C/[C@@H]2C` [Cpd (Ib), Soraphen A 4-α]: in assay [2] (L6, Table 2, 0.02 μM), the Fold stimulation was determined as 1.0 fold and the Palmitate oxidation rate is recorded as 8.8 +/− 0.3 pmol · h^−1 · well^−1. Moreover, in assay [2] (L6, Table 2, 0.2 μM), the Fold stimulation is listed as 1.1 fold and the Palmitate oxidation rate is 10.0 +/− 1.4 pmol · h^−1 · well^−1. For the same molecule, in assay [2] (L6, Table 2, 2 μM), the Fold stimulation is given as 1.5 fold and the Palmitate oxidation rate is on record as 13.5 +/− 1.4 pmol · h^−1 · well^−1. Moreover, in assay [1] (HepG2, 10 μM), the “Fold stimulation … of test compounds” value amounted to 2.8 fold and the Palmitate oxidation rate was 10.8 +/− 0.4 pmol · h^−1 · well^−1. For the same molecule, in assay [3], the IC50 turned out to be 200 nM, the “Effect on K0.5 of K-citrate” value was “did not change” and the “Effect on Vmax of the ACC enzyme reaction” value is reported as “dose-dependent decrease”.

`CCCCCCCCCCCCCCOc1ccc(C(=O)O)o1` [TOFA, 5-(Tetradecyloxy)-2-furoic acid, reference compound]: the “Fold stimulation … of test compounds” value in assay [1] (HepG2, 25 μM) turned out to be 2.1 fold. Moreover, the Palmitate oxidation rate in assay [1] (HepG2, 25 μM) is reported as 8.1 +/− 0.7 pmol · h^−1 · well^−1; in assay [4] (L6, Table 3, 0.25 μM) it was 5.8 +/− 0.4 pmol · h^−1 · well^−1; in assay [4] (L6, Table 3, 2.5 μM) it was 8.0 +/− 0.7 pmol · h^−1 · well^−1; in assay [4] (L6, Table 3, 25 μM), 7.2 +/− 0.3 pmol · h^−1 · well^−1. For the same molecule, the Fold stimulation in assay [4] (L6, Table 3, 0.25 μM) is 1.1 fold; in assay [4] (L6, Table 3, 2.5 μM), 1.5 fold; in assay [4] (L6, Table 3, 25 μM), 1.3 fold. The “Maximal stimulation of palmitate oxidation” value in assay [4] (differentiated L6 cells, up to 25 μM) came to 1.5 fold.

On to `CC(Oc1ccc(Oc2ccc(Cl)cc2Cl)cc1)C(=O)O` (stereo not shown) [Diclofop, 2-[p-(2,4-Dichlorophenoxy)phenoxy]propionic acid], for which the “Stimulation of palmitate / fatty acid oxidation (in words)” value in assay [1] is listed as “did not stimulate”. Also, in assay [1] (HepG2, 25 μM), the “Fold stimulation … of test compounds” value is reported as 0.8 fold and the Palmitate oxidation rate is 3.1 +/− 1.3 pmol · h^−1 · well^−1.

As for `CO[C@H]1CC(O)CC[C@@H](c2ccccc2)OC(=O)[C@@H](C)C2(O)O[C@H]([C@@H](C)[C@H](O)[C@H]2OC)[C@@H](C)/C=C/[C@H]1O` (stereo partly drawn) [Cpd (Ic), Soraphen B 2-α], in assay [1] (HepG2, 10 μM), the “Fold stimulation … of test compounds” value worked out at 1.6 fold and the Palmitate oxidation rate is reported as 6.1 +/− 0.4 pmol · h^−1 · well^−1. For the same molecule, in assay [3], the half-maximal inhibitory concentration (IC50) was determined as 1750 nM, the “Effect on K0.5 of K-citrate” value is “did not change” and the “Effect on Vmax of the ACC enzyme reaction” value is reported as “dose-dependent decrease”. For the same molecule, in assay [4] (L6, Table 2, 0.02 μM), the Fold stimulation stood at 0.9 fold and the Palmitate oxidation rate is reported as 8.2 +/− 0.5 pmol · h^−1 · well^−1. In addition, in assay [4] (L6, Table 2, 0.2 μM), the Fold stimulation is reported as 1.0 fold and the Palmitate oxidation rate is 8.8 +/− 0.5 pmol · h^−1 · well^−1. In assay [4] (L6, Table 2, 2 μM), the Fold stimulation is recorded as 1.1 fold and the Palmitate oxidation rate is reported as 10.2 +/− 1.3 pmol · h^−1 · well^−1.

Regarding `CCCC(=NOCC)C1=C(O)CC(C2CCCSC2)CC1=O` (stereo not shown) [Cycloxidim, 2-(1-Ethoxyimino-butyl)-3-hydroxy-5-(tetrahydro-thiopyran-3-yl)-cyclohex-2-enone], the “Stimulation of palmitate / fatty acid oxidation (in words)” value in assay [1] was “did not stimulate”. Moreover, in assay [1] (HepG2, 25 μM), the “Fold stimulation … of test compounds” value is given as 0.9 fold and the Palmitate oxidation rate is given as 3.5 +/− 0.2 pmol · h^−1 · well^−1.

(Values after patent US20030144345A1, “Treatment of metabolic diseases with soraphen derivatives” (priority 2001, published 2003).)
